Reference: PubChem BioAssay (NCI)
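Where inhibition never reached the appropriate level, the endpoint shown equals the highest concentration tested. Otherwise, values were interpolated linearly from a five-concentration, 48-hour dose response in 96-well plates. Abbreviation: GI50, concentration required for 50% inhibition of growth. The concentration for full growth arrest is given as TGI.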

Tests used:
Test in all cases: inhibition of tumour cell growth, NCI panel, 48 h
ACHN renal = test system: ACHN renal
OVCAR-4 ovarian = test system: OVCAR-4 ovarian
SNB-75 CNS = test system: SNB-75 CNS
NCI-H23 lung = test system: NCI-H23 lung
HS 578T breast = test system: HS 578T breast
HOP-92 NSCLC = test system: HOP-92 NSCLC
COLO 205 colon = test system: COLO 205 colon
CCRF-CEM leukemia = test system: CCRF-CEM leukemia
BT-549 breast = test system: BT-549 breast
T-47D breast = test system: T-47D breast
OVCAR-8 ovarian = test system: OVCAR-8 ovarian
OVCAR-5 ovarian = test system: OVCAR-5 ovarian
SK-MEL-5 melanoma = test system: SK-MEL-5 melanoma
HT29 colon = test system: HT29 colon
MALME-3M melanoma = test system: MALME-3M melanoma
UO-31 renal = test system: UO-31 renal
DU-145 prostate = test system: DU-145 prostate
HCC-2998 colon = test system: HCC-2998 colon
NCI-H522 lung = test system: NCI-H522 lung
SK-OV-3 ovarian = test system: SK-OV-3 ovarian
UACC-257 melanoma = test system: UACC-257 melanoma
SN12C renal = test system: SN12C renal
A498 renal = test system: A498 renal
LOX IMVI melanoma = test system: LOX IMVI melanoma
IGROV1 ovarian = test system: IGROV1 ovarian
HCT-15 colon = test system: HCT-15 colon
HOP-62 NSCLC = test system: HOP-62 NSCLC
UACC-62 melanoma = test system: UACC-62 melanoma
HCT-116 colon = test system: HCT-116 colon
MDA-MB-231 breast = test system: MDA-MB-231 breast
KM12 colon = test system: KM12 colon
SK-MEL-2 melanoma = test system: SK-MEL-2 melanoma
CAKI-1 renal = test system: CAKI-1 renal
SK-MEL-28 melanoma = test system: SK-MEL-28 melanoma
SF-539 CNS = test system: SF-539 CNS
M14 melanoma = test system: M14 melanoma
SF-268 CNS = test system: SF-268 CNS
PC-3 prostate = test system: PC-3 prostate
MCF7 breast = test system: MCF7 breast
A549 NSCLC = test system: A549 NSCLC
NCI/ADR-RES ovarian = test system: NCI/ADR-RES ovarian
MOLT-4 leukemia = test system: MOLT-4 leukemia
OVCAR-3 ovarian = test system: OVCAR-3 ovarian
HL-60(TB) leukemia = test system: HL-60(TB) leukemia
NCI-H226 lung = test system: NCI-H226 lung
RPMI-8226 leukemia = test system: RPMI-8226 leukemia
U251 CNS = test system: U251 CNS
786-0 renal = test system: 786-0 renal
RXF 393 renal = test system: RXF 393 renal
TK-10 renal = test system: TK-10 renal
SF-295 CNS = test system: SF-295 CNS
EKVX NSCLC = test system: EKVX NSCLC
MDA-MB-435 = test system: MDA-MB-435
K-562 leukemia = test system: K-562 leukemia
SNB-19 CNS = test system: SNB-19 CNS
NCI-H460 lung = test system: NCI-H460 lung
SW-620 colon = test system: SW-620 colon

## COc1ccc2c(c1)C(=O)c1c-2c(OCCCN(C)C)nc2cc(Br)ccc12
ACHN renal
  GI50: 1.29 µM
  TGI: 2.73 µM
OVCAR-4 ovarian
  GI50: 1.96 µM
  TGI: 5.17 µM
SNB-75 CNS
  GI50: 1.57 µM
  TGI: 4.44 µM
NCI-H23 lung
  GI50: 11.3 µM
  TGI: 24.6 µM
HS 578T breast
  GI50: 3.46 µM
  TGI: 15.4 µM
HOP-92 NSCLC
  GI50: 6.12 µM
  TGI: 20.4 µM
COLO 205 colon
  GI50: 13.8 µM
  TGI: > 100 µM
CCRF-CEM leukemia
  GI50: 5.2 µM
  TGI: 23.8 µM
BT-549 breast
  GI50: 13.5 µM
  TGI: 28 µM
T-47D breast
  GI50: 10.8 µM
  TGI: 32.2 µM
OVCAR-8 ovarian
  GI50: 2.63 µM
  TGI: 6.95 µM
OVCAR-5 ovarian
  GI50: 1.71 µM
  TGI: 3.59 µM
SK-MEL-5 melanoma
  GI50: 15 µM
  TGI: 28.3 µM
HT29 colon
  GI50: 10.5 µM
  TGI: 26.8 µM
MALME-3M melanoma
  GI50: 1.87 µM
  TGI: 4.64 µM
UO-31 renal
  GI50: 1.36 µM
  TGI: 2.88 µM
DU-145 prostate
  GI50: 5.91 µM
  TGI: 18.9 µM
HCC-2998 colon
  GI50: 10.3 µM
  TGI: 22.7 µM
NCI-H522 lung
  GI50: 7.05 µM
  TGI: 21.9 µM
SK-OV-3 ovarian
  GI50: 7.28 µM
  TGI: 22.9 µM
UACC-257 melanoma
  GI50: 16.4 µM
  TGI: 32.9 µM
SN12C renal
  GI50: 2.01 µM
  TGI: 4.51 µM
A498 renal
  GI50: 7.31 µM
  TGI: 20.5 µM
LOX IMVI melanoma
  GI50: 11.3 µM
  TGI: 23.7 µM
IGROV1 ovarian
  TGI: 26.9 µM
HCT-15 colon
  GI50: 4.75 µM
  TGI: 18.3 µM
HOP-62 NSCLC
  GI50: 1.81 µM
  TGI: 4.29 µM
UACC-62 melanoma
  GI50: 12.5 µM
  TGI: 26.4 µM
HCT-116 colon
  GI50: 5.16 µM
  TGI: 18.5 µM
MDA-MB-231 breast
  GI50: 3.18 µM
  TGI: 13.5 µM
KM12 colon
  GI50: 11.4 µM
  TGI: 24.3 µM
SK-MEL-2 melanoma
  GI50: 19.1 µM
  TGI: 36.3 µM
CAKI-1 renal
  GI50: 11 µM
  TGI: 23.5 µM
SK-MEL-28 melanoma
  GI50: 1.87 µM
  TGI: 3.74 µM
SF-539 CNS
  GI50: 1.69 µM
  TGI: 3.16 µM
M14 melanoma
  GI50: 14.8 µM
  TGI: 29 µM
SF-268 CNS
  GI50: 2.5 µM
  TGI: 10.4 µM
PC-3 prostate
  GI50: 3.04 µM
  TGI: 7.78 µM
MCF7 breast
  GI50: 2.32 µM
  TGI: 13.7 µM
A549 NSCLC
  GI50: 3.52 µM
  TGI: 11.4 µM
NCI/ADR-RES ovarian
  GI50: 2.84 µM
  TGI: 16.5 µM
MOLT-4 leukemia
  GI50: 3.09 µM
  TGI: 18.7 µM
OVCAR-3 ovarian
  GI50: 3.45 µM
  TGI: 13.4 µM
HL-60(TB) leukemia
  GI50: 29.4 µM
  TGI: > 100 µM
NCI-H226 lung
  GI50: 4.63 µM
  TGI: 18.7 µM
RPMI-8226 leukemia
  GI50: 15.9 µM
  TGI: 39.7 µM
U251 CNS
  GI50: 2.1 µM
  TGI: 4.22 µM
786-0 renal
  GI50: 1.59 µM
  TGI: 2.99 µM
RXF 393 renal
  GI50: 1.7 µM
  TGI: 3.4 µM
TK-10 renal
  GI50: 4.17 µM
  TGI: 13.8 µM
SF-295 CNS
  GI50: 7.3 µM
  TGI: 20.7 µM
EKVX NSCLC
  GI50: 2.78 µM
  TGI: 13.5 µM
MDA-MB-435
  GI50: 5.45 µM
  TGI: 18.1 µM
K-562 leukemia
  GI50: 6.75 µM
  TGI: 23.1 µM
SNB-19 CNS
  GI50: 3.08 µM
  TGI: 11.8 µM
NCI-H460 lung
  GI50: 2.54 µM
  TGI: 7.57 µM
SW-620 colon
  GI50: 5.2 µM
  TGI: 20 µM

## NC(N)=N/N=C\c1ccc(OCc2ccccc2)cc1
ACHN renal
  GI50: 2.64 µM
  TGI: 8.66 µM
OVCAR-4 ovarian
  GI50: 2.63 µM
  TGI: 13.8 µM
SNB-75 CNS
  GI50: 1.64 µM
  TGI: 4.7 µM
NCI-H23 lung
  GI50: 9.84 µM
  TGI: 24.6 µM
HS 578T breast
  GI50: 1.75 µM
  TGI: 4.81 µM
HOP-92 NSCLC
  GI50: 1.05 µM
  TGI: 4.24 µM
COLO 205 colon
  GI50: 1.74 µM
  TGI: 3.44 µM
CCRF-CEM leukemia
  GI50: 2.73 µM
  TGI: 10 µM
BT-549 breast
  GI50: 10.8 µM
  TGI: 23 µM
T-47D breast
  GI50: 1.45 µM
  TGI: 4.22 µM
OVCAR-5 ovarian
  GI50: 2.95 µM
  TGI: 15.5 µM
SK-MEL-5 melanoma
  GI50: 1.62 µM
  TGI: 3.24 µM
HT29 colon
  GI50: 1.87 µM
  TGI: 3.87 µM
MALME-3M melanoma
  GI50: 2.32 µM
  TGI: 6.03 µM
UO-31 renal
  GI50: 2.7 µM
  TGI: 17.5 µM
DU-145 prostate
  GI50: 2.71 µM
  TGI: 8.45 µM
HCC-2998 colon
  GI50: 1.67 µM
  TGI: 3.2 µM
NCI-H522 lung
  GI50: 1.52 µM
  TGI: 3.15 µM
SK-OV-3 ovarian
  GI50: 3.47 µM
  TGI: 14.7 µM
UACC-257 melanoma
  GI50: 1.61 µM
  TGI: 3.31 µM
SN12C renal
  GI50: 1.97 µM
  TGI: 5.35 µM
A498 renal
  GI50: 2.31 µM
  TGI: 9.7 µM
LOX IMVI melanoma
  GI50: 1.53 µM
  TGI: 2.96 µM
IGROV1 ovarian
  GI50: 3.42 µM
  TGI: 18.3 µM
HCT-15 colon
  GI50: 1.97 µM
  TGI: 5.37 µM
HOP-62 NSCLC
  GI50: 2.42 µM
  TGI: 10.5 µM
UACC-62 melanoma
  GI50: 1.57 µM
  TGI: 3.4 µM
HCT-116 colon
  GI50: 1.51 µM
  TGI: 3.14 µM
MDA-MB-231 breast
  GI50: 1.96 µM
  TGI: 5.12 µM
KM12 colon
  GI50: 1.63 µM
  TGI: 3.1 µM
SK-MEL-2 melanoma
  GI50: 1.74 µM
  TGI: 3.38 µM
CAKI-1 renal
  GI50: 3.13 µM
  TGI: 13.4 µM
SK-MEL-28 melanoma
  GI50: 1.76 µM
  TGI: 3.68 µM
SF-539 CNS
  GI50: 1.7 µM
  TGI: 4.06 µM
SF-268 CNS
  GI50: 3.47 µM
  TGI: 17.4 µM
PC-3 prostate
  GI50: 2.41 µM
  TGI: 10.6 µM
MCF7 breast
  GI50: 1.37 µM
  TGI: 2.91 µM
A549 NSCLC
  GI50: 3.31 µM
  TGI: 13.2 µM
NCI/ADR-RES ovarian
  GI50: 1.82 µM
  TGI: 4.93 µM
MOLT-4 leukemia
  GI50: 3.36 µM
  TGI: 9.36 µM
OVCAR-3 ovarian
  GI50: 2.2 µM
  TGI: 5.75 µM
HL-60(TB) leukemia
  GI50: 2.56 µM
  TGI: 4.87 µM
NCI-H226 lung
  GI50: 4.87 µM
  TGI: 24.2 µM
RPMI-8226 leukemia
  GI50: 2.02 µM
  TGI: 5.01 µM
U251 CNS
  GI50: 1.62 µM
  TGI: 3.17 µM
786-0 renal
  GI50: 1.66 µM
  TGI: 3.17 µM
RXF 393 renal
  GI50: 1.79 µM
  TGI: 4.26 µM
SF-295 CNS
  GI50: 2.25 µM
  TGI: 7.02 µM
EKVX NSCLC
  GI50: 7.37 µM
  TGI: 24.2 µM
MDA-MB-435
  GI50: 1.68 µM
  TGI: 4.1 µM
K-562 leukemia
  GI50: 2.65 µM
  TGI: 5.91 µM
SNB-19 CNS
  GI50: 3.08 µM
  TGI: 15.4 µM
NCI-H460 lung
  GI50: 1.77 µM
  TGI: 3.47 µM
SW-620 colon
  GI50: 1.64 µM
  TGI: 3.3 µM
